# Measurements as given in patent publication US12221494B2, “Short synthetic peptides and their uses for treating retinal degenerative diseases and/or tissue injuries” (MacKay Memorial Hospital, priority 2019, dated 2025).
# Legend:
# ARPE-19 cells = experiment: 4-HNE induced apoptosis of ARPE-19 cells (TUNEL staining); format: cell-based, human; details: 20 μM peptide pretreatment, 25 μM 4-HNE 24 h
# Protocol: FIG. 6. The protective effect of the 6-mer dS on ARPE-19 cells against 4-HNE induced apoptosis. Cells were deprived of serum for 24 h and then pretreated with 20 μM 6-mer dS or solvent prior to exposed with 25 μM 4-HNE for additional 24 h. Apoptosis was determined by TUNEL staining (green dots) and counter-stained with Hoechst 33258 (blue dots). (A) Representative graphs from three independent experiments are shown. (B) The percentage of cell death was quantified by dividing the number of TUNEL-positive cells to a population of 2000 counted cells per condition. TUNEL, terminal deoxynucleotidyl transferase-mediated dUTP nick end-labeling. ^aP<0.00003 versus solvent-treated cells. ^bP<0.0006 versus solvent/4-HNE-treated cells.
# Reference is made to FIG. 6, which depicts the protective effect of 6-mer dS or 6-mer dE on 4-hydroxy-2-nonenal (4-HNE) induced apoptosis of ARPE-19 cells. 4-hydroxy-2-nonenal (4-HNE) is a product of lipid oxidation, and is also considered as one of the most formidable reactive aldehydes capable of forming adduct with various cellular targets, particularly proteins involve in redox signaling.
# survivin mRNA = experiment: Real-time qPCR of survivin mRNA in C2C12 cells; format: cell-based, mouse; details: C2C12 cells in low serum media, 20 μM peptide, 6 h
# Protocol: Total RNA was extracted from cells using TRIzol (Invitrogen). Synthesis of cDNA was performed with 1 μg of total RNA at 50° C. for 50 min using oligo(dT) primers and reverse transcriptase (Superscript III; Invitrogen). Briefly, quantification of cDNA was performed in the LightCycler (Roche, Mannheim, Germany) using the DNA Master SYBR Green I kit (Roche) with the following cycling conditions: initial denaturation at 95° C. for 10 min, followed by 40 cycles at 95° C. for 10 s, 60° C. for 10 s, and 72° C. for 10 s and a 5-min terminal incubation at 72° C. The data were calculated with AACt. The expression was then normalized against the expression of glyceraldehyde-3-phosphate dehydrogenase (GAPDH). The PCR primers were mouse Survivin sense, 5′-[…]-3′ (SEQ ID NO: 27), anti-sense, 5′-[…]-3′ (SEQ ID NO: 28) (accession number: NM_001012273.1; PCR product: 136 bp); mouse GAPDH sense, 5′-[…]-3′ (SEQ ID NO: 29), anti-sense, 5′-[…]-3′ (SEQ ID NO: 30) (NM_001289726.1; 149 bp). For analysis rabbit inflammatory gene expression, The PCR primers were rabbit TNF-αsense, 5′-[…]-3′ (SEQ ID NO: 31), anti-sense, 5′-[…]-3′ (SEQ ID NO: 32) (accession number: NM 001082263.1); rabbit IL-1βsense, 5′-[…]-3′(SEQ ID NO: 33), anti-sense, 5′-[…]-3′ (SEQ ID NO: 34) (NM 001082201.1); rabbit GAPDH sense, 5′-[…]-3′ (SEQ ID NO: 35), anti-sense, 5′-[…]-3′ (SEQ ID NO: 36) (accession number:NM 001082253.1). The cycle threshold (Ct) values of the PCR product and a GAPDH (Glyceraldehyde 3-phosphate dehydrogenase) control mRNA were used to calculate relative quantities of mRNA.
# Similar to the approach in Example 1.2.1, the expression level of survivin mRNA in C2C12 cells was used as an indicator for the function of the 6-mer variants in Tables 3 to 5. Briefly, C2C12 cells in low serum media were treated with 20 μM the 6-mer variants for 6 h. […] The results also confirmed that alanine substation at the glutamic acid (E) residues would severely impair the 6-mer activity.
# Neuro-2a cells = experiment: Glutamate-induced Neuro-2a cell death (LDH release); format: cell-based, mouse
# Protocol: Neuro-2a cells were seeded in 48-well culture plates (1.5×10^5 cells/well) for 24 h, and then cultured in 0.5 ml fresh 2% FBS-DMEM medium containing 20 μM of the present peptide (7 μg of 6-mer in 0.5 ml medium) for further 4 h. Subsequently, 100 mM glutamate (from 1 M stock and PBS as solvent) was added to cells for further 6 h. Glutamate-induced cell death was quantitatively assessed by measuring lactate dehydrogenase (LDH) activity released into the culture medium by damaged cells. LDH activity was measured using PicoProbe™ LDH-Cytotoxicity Fluorometric Assay Kit (Catalog #K314-500; BioVision) according to the instruction manuals. LDH activity was estimated using an automated microplate reader (UVmax; Molecular Devices, San Francisco, CA) by measuring the fluorescent product (Ex/Em=535/587 nm).
# Briefly, cells were pretreated with the designated peptide (i.e., any of SEQ ID NOs: 2 to 11) for 4 h and then treated with 100 mM glutamate for 6 h. The cell death was detected by a commercial lactate dehydrogenase (LDH) Cytotoxicity Assay Kit. Results are depicted in FIG. 1.
substance,measurement,setting,value
NH2-(D-Ser)-Leu-Gly-Ala-Glu-Gln-COOH (SLGAEQ; HELM PEPTIDE1{[dS].L.G.A.E.Q}$$$$V2.0; SMILES CC(C)C[C@H](NC(=O)[C@H](N)CO)C(=O)NCC(=O)N[C@@H](C)C(=O)N[C@@H](CCC(=O)O)C(=O)N[C@@H](CCC(N)=O)C(=O)O) [6-mer dS],"4-HNE induced apoptosis (TUNEL), in words",ARPE-19 cells,could suppress 4-HNE induced apoptosis
same,"survivin mRNA induction, in words",survivin mRNA,increased the level of survivin mRNA
same,glutamate-induced cell death (LDH release into the medium),"Neuro-2a cells; Neuro-2a cells, 20 μM peptide pretreatment 4 h, then 100 mM glutamate 6 h, solvent/glutamate control 7.6±0.8%",1.5±0.5%
same,"protective effect on Neuro-2a cells (neuroprotective activity), in words",Neuro-2a cells; glutamate-induced cell death,exhibited protective effect on Neuro-2a cells
